What was measured:
Raf-1 [1] = assay: Raf-1 activity after co-expression with KSR in COS-7 cells; assay type: cell-based, human (Raf-1 expressed in COS-7 cells)
Method: Some studies used untagged KSR (n=4) and yielded identical results. At 60 hours post-transfection, cells were lysed with RIPA buffer (NP-40 buffer containing 0.1% SDS and 0.1% deoxy cholate). […] […]. The samples were boiled for 5 min, resolved with SDS-PAGE (7.5%) and autoradiographed.
[…]. After 30 min, the reaction was stopped by addition of Laemmli sample buffer and phosphorylated MBP were resolved by 15% SDS-PAGE, prior to autoradiography.
; a kind gift of Dr. Natalie Ahn) or 1.25 μg recombinant human MEK1 (Santa Cruz), 0.625 μg recombinant human ERK1 (UBI) and myelin basic protein (MBP). After 20-30 min, the reaction was stopped by addition of SDS sample buffer. […]

KSR [2] = target: T1, KSR (Mus musculus, UniProt Q61097); assay: Phosphorylation and activation of recombinant Raf-1 by KSR immunoprecipitated from treated COS-7 cells; assay type: cell-based, mouse (KSR expressed in COS-7 cells); conditions: C2-ceramide 1 μM; TNFα 10 nM
T1 sequence (Q61097 1-873): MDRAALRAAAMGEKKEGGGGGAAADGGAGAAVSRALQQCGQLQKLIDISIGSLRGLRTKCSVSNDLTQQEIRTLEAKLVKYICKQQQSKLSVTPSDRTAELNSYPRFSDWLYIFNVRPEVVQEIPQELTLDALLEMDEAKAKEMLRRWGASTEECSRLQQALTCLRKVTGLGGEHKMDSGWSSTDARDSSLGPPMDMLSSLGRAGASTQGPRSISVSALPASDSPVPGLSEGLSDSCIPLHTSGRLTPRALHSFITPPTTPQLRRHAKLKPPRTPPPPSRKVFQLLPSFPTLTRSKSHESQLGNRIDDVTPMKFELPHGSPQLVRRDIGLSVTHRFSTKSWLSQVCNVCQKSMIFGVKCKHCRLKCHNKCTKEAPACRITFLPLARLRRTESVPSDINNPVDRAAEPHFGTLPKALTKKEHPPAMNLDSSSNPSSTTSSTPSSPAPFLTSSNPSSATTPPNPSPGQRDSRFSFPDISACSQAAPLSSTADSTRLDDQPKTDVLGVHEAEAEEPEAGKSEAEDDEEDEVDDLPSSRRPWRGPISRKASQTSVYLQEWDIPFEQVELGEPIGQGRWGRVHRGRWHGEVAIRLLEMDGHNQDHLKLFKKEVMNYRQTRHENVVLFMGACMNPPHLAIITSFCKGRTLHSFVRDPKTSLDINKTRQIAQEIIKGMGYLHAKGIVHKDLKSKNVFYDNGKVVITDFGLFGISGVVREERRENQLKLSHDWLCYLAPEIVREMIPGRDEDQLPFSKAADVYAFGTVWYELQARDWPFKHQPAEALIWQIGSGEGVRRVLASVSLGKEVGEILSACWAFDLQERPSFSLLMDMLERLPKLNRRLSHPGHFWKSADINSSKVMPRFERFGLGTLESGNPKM
Method: FIGS. 23B-23C--COS-7 cells expressing Flag-tagged KSR were stimulated with 1 μM C2-ceramide for 10 min and lysed with NP-40 buffer as in FIG. 23A. […] The autoradiogram was exposed for 1 hour. Data represent one of three experiments.
(§1) COS-7 cells expressing Flag-tagged KSR were stimulated with 10 nM TNFα for the times indicated and lysed with NP-40 buffer as in FIG. 2A. […] The autoradiogram was exposed for 1 hour. Data represent one of three similar experiments.
Immunoprecipitated KSR was incubated with reaction buffer A containing 0.5 mM ATP and a protein kinase inhibitor cocktail [20 μM PKC inhibitor peptide (UBI), 2 μM protein kinase A inhibitor peptide (UBI) and 20 μM R24571 (Sigma)] for 30 min at 22° C.

KSR/Raf-1 complex = assay: Co-immunoprecipitation of KSR and Raf-1 from treated COS-7 cells; assay type: cell-based, mouse KSR (COS-7 cells)
Method: FIG. […] Cells were lysed with NP-40 buffer and subjected to 4 hr of immunoprecipitation with anti-Raf-1 antibody. Two controls, KSR and KSR with ceramide treatment, received protein A conjugated sepharose beads without anti-Raf-1 antibody. […] Data represent one of four similar experiments.
Cell lysates were subjected to immunoprecipitation with anti-Flag antibody. Immunoprecipitated samples were handled as in FIG. 24A except Western blot analysis was performed with anti-Raf-1 antibody. Data represent one of three similar experiments.
Anti-Raf-1 antibody conjugated beads were prepared by overnight incubation of 2 μl of anti-Raf-1 antibody (a kind gift of Dr. Debbie Morrison) with 5 mg of the protein A conjugated sepharose beads, followed by washing three times with NP-40 lysis buffer. […] Lysates (0.8 mg total protein) were then incubated for 4 hrs with anti-Raf-1 bound sepharose beads or anti-Flag conjugated agarose beads. The beads were washed vigorously 5 times, boiled in Laemmli sample buffer, and proteins were separated on 7.5% SDS-PAGE. After electrophoresis, the gel was transferred to PVDF membrane and probed with anti-Flag antibody or anti-Raf-1 antibody.

KSR [3] = target: T1, KSR; assay: KSR autophosphorylation after treatment of COS-7 cells expressing KSR; assay type: cell-based, mouse (KSR expressed in COS-7 cells)
Method: FIG. 23A--COS-7 cells were transfected as in FIG. 22A and placed in serum-free medium. After 4 hours, cells were stimulated for 10 min with the ceramide analog, C2-ceramide (Biomol), at the concentrations indicated. Cells were lysed with NP-40 lysis buffer, and Flag-tagged KSR (0.8 mg protein for each point) was immunoprecipitated and assayed for autophosphorylation activity as described in Experimental Procedures. The autoradiogram was exposed for 1 hour. KSR is expressed at similar levels in each sample as monitored by Western blot (data not shown). Data represent one of three similar experiments.
as §1
KSR was immunoprecipitated as above from 0.8 mg NP-40 lysate protein with 40 μl agarose-conjugated anti-Flag antibody at 4° C. for 4 hrs or overnight. […] The reaction was stopped by addition of Laemmli sample buffer. Samples were resolved by 7.5% sodium dodecyl sulfate-polyacrylamide gel electrophoresis (SDS-PAGE) and autoradiographed.

[4] = test system: ceramide-activated protein kinase; conditions: ceramide 0.001 to 3 μM, of the control, ref. [40]; cited from earlier work
Raf-1 [5] = assay: Activation of Raf-1 by KSR in vitro (MEK1 phosphorylation)
[6] = test system: ceramide-activated protein kinase; assay: EGFR peptide phosphorylation by kinase in A-431 microsomal membranes / postnuclear supernatant; assay type: biochemical, human (A-431 epidermoid carcinoma cells)
Method: Kinetics of ^32 Pi incorporation into the EGFR peptide. […] The reaction was initiated by addition of 50 μl of [γ-^32 P]ATP (150 μM final concentration) and terminated by addition of 50 μl of 0.5 M ATP in 90% (vol/vol) formic acid. Samples were spotted on phosphocellulose paper, washed with 1 M acetic acid/4 mM pyrophosphate, and ^32 P incorporation was measured by liquid-scintillation counting, as described. A boiled protein blank was subtracted from each data value. The data (means) represent duplicate samples from one of two similar experiments. […]
Kinetics of ceramide-induced ^32 Pi incorporation into EGFR peptide. Peptide phosphorylation was done as described in FIG. 2 in the absence (.smallcircle.) or presence (.circle-solid.) of 0.5 μM C8 -ceramide. Phosphorylated peptide was resolved by HPLC. Values (means) represent data from three experiments.
Concentration-dependence of ceramide-induced ^32 Pi incorporation into EGFR peptide. Peptide phosphorylation reactions were done as described for FIG. 2, for 2 minutes, using various concentrations of ceramide (0.001-3 μM). Phosphorylated peptide was resolved by HPLC. Values (means) represent data from three experiments. […]
Phosphorylation was initiated at 22° C. by addition of 50 μl of [γ-^32 P] ATP (150 μM final concentration; 4000 dpm/pmol). For studies with lipid activators, ceramide and other lipids were dried under N2 and resuspended in the kinase assay buffer by bath sonication for 2 minutes at 37° C.
Phosphorylated peptide was quantified by two separate methods. For initial studies, samples were spotted on phosphocellulose paper, washed in 1 M acetic acid/4 mM pyrophosphate and subjected to liquid scintillation counting, according to methods well known to those skilled in the art. Values obtained from a boiled blank or a sample lacking peptide were subtracted from each determination. Alternatively, HPLC was done according to methods well known to those skilled in the art. For these studies, samples were first applied to a C18 Sep-Pak cartridge and eluted with 99.9% acetonitrile/0.1% trifluoroacetic acid. The eluates were lyophilized, resuspended in 6 M guanidine hydrochloride/200 mM Tris, pH 8.5 and applied to a C18 reverse-phase column (Dynamax, 4.6 mm i.d., Rainin, Woburn, Mass.). The peptide was eluted with a linear gradient (1% per minute) of acetonitrile at a flow rate of 1 ml/minute and was detected by measuring the Cerenkov radiation associated with 1-ml fractions.

Raf-1 [7] = assay: Raf-1 phosphorylation in intact HL-60 cells; assay type: cell-based, human (HL-60 cells); conditions: TNF 1 nM; ceramide; sphingomyelinase 10 mU/ml
Method: To examine this possibility, intact HL-60 cells were metabolically labeled with ^32 P-orthophosphate for 4 hr followed by stimulation with TNF for the indicated times (FIG. 20A). […] Raf-1 proteins were resolved by SDS-PAGE and autoradiographed.
FIG. 20A--300×10^6 cells were resuspended at 37° C. in 15 ml of serum-free phosphate-free RPMI medium ([…]) containing 6 mCi ^32 P-orthophosphate. After […], cells were resuspended into the same buffer without radiolabel (5×10^7 /point) and stimulated with TNF (1 nM). At the indicated times, ice-cold serum-free phosphate-free RPMI was added and cells were homogenized as described in FIG. 17 in RIPA lysis buffer. Cell debris was removed by centrifugation at 700×g for 5 min. […] After SDS-PAGE, Raf-1 was transferred to an Immobilon PVDF (Millipore) membrane according to the vendor's instructions. […] The data (CPM/Raf protein) are presented as fold of control and represent one of three studies performed in triplicate.

Raf-1 [8] = assay: Kinase activity of immunoprecipitated Raf-1 toward MEK1 after HL-60 cell stimulation; assay type: cell-based, human (HL-60 cells)
Method: Recovery of MEK1 was monitored by western blot (Bottom Panel). Identical results were obtained with cells stimulated for 5 min with TNF.
Recovery of MEK1 was monitored by western blot (Bottom Panel).
These studies indicate that Raf-1 is a component of the sphingomyelin pathway mediating TNF action.
MEK1 autophosphorylation was for 45 min. An autoradiogram of MEK1 phosphorylation (top panel) and recovery of MEK1 protein by western blot (bottom panel) are shown. For western blot, proteins separated by SDS-PAGE were electrotransferred to an Immobilon PVDF membrane at 12 volts overnight at 4° C. Membranes were then blocked with 2% BSA in TBS [20 mM Tris, pH 7.6, 137 mM NaCl] for 1 hr and washed with TBST (TBS containing 0.2% Tween-20).

[9] = test system: ceramide-activated protein kinase; assay: Ceramide-activated protein kinase activity (EGFR peptide) in EL-4 cell fractions; conditions: 10 nM to 1 μM
Method: Effect of IL-1β on ceramide-activated protein kinase activity. […] Homogenates were centrifuged at 500×g for 5 minutes to remove nuclei and at 200,000×g for 30 minutes to prepare microsomal membranes. Membranes were resuspended into homogenizing buffer (2.2 μg membrane protein μl^-1). For assay of kinase activity, the reaction mixture contained 20 μl of microsomal membrane, 40 μl EGFR peptide (4 mg ml^-1 in 25 mM Hepes, pH 7.4) and 100 μl buffer (50 mM HEPES, pH 7.4, 20 mM MgCl2). Phosphorylation was initiated at 22° C. by addition of 40 μl [γ-^32 P] ATP (100 μM final concentration) and terminated at the indicated times by addition of 40 μl of 0.5 M ATP in 90% formic acid. Phosphorylated peptide was eluted from a C18 Sep pak cartridge (Millipore), lyophilized, and resolved by C18 reverse phase HPLC using a linear gradient of acetonitrile. […] All assays were performed under conditions determined as linear for time and enzyme concentration. Enzyme activity was determined from the percent conversion of substrate to product and the specific radioactivity of [γ-^32 P] ATP. […] Values (mean±range) represent duplicate determinations from two experiments.
Activity was measured by the transfer of ^32 P from the γ-position of ATP to EGFR peptide (AA 663-681 of the EGFR). The effect of IL-1β on kinase activity was determined using microsomal membranes derived from cells stimulated with IL-1β.

[10] = test system: ceramide-activated protein kinase; conditions: treatment of intact cells; literature; cited from earlier work

Raf-1(T268V)
Raf-1 activation in COS-7 cells co-expressing KSR (Raf-1 [1]): as effectively as wild type Raf-1

CCCCCCCCCCCCC/C=C/[C@@H](O)[C@H](CO)NC(C)=O [C2-ceramide]
activity of immunoprecipitated KSR to phosphorylate and activate Raf-1 (KSR [2]): markedly enhanced
co-immunoprecipitation of KSR with Raf-1 (KSR/Raf-1 complex; 50 μM C2-ceramide, anti-Raf-1 precipitation): significantly enhanced
co-immunoprecipitation of Raf-1 with KSR (KSR/Raf-1 complex; C2-ceramide, anti-Flag precipitation): dramatically enhanced
concentration of maximal effect (KSR [3]; C2-ceramide): 40 µM
lowest effective concentration (KSR activity) (KSR [3]; C2-ceramide): 50 nM
fold induction at 40 µM (KSR [3]; COS-7, 10 min, 40 μM C2-ceramide, read-out: maximal enhancement of KSR autophosphorylating activity): 5 to 10

Raf-1(T269V)
Raf-1 activation in COS-7 cells co-expressing KSR (Raf-1 [1]): not activated

ceramide
maximum enhancement of kinase activity [4]: two-fold
KSR-dependent Raf-1 activity toward MEK1 in vitro (Raf-1 [5]): markedly enhanced
activation of Raf-1 by ceramide in the absence of KSR (Raf-1 [5]): not stimulated
duration of stimulation ([6]; 0.5 μM ceramide): at least 15 minutes
onset of stimulation of EGFR peptide phosphorylation ([6]; 0.5 μM ceramide): ≤ 30 s
increase in kinase activity ([6]; 0.5 μM ceramide, by 30 s): 2 fold
lowest effective concentration ([6]; 2 minutes of stimulation): 1 nM
EGFR peptide phosphorylation, fold of control ([6]; 2 minutes of stimulation, maximal effect for ceramide at 1 μM): 2.1 fold of control
EC50 ([6]; 2 minutes of stimulation, read-out: ED50 for EGFR peptide phosphorylation): ~30 nM
concentration inducing maximal phosphorylation ([6]; EGFR peptide phosphorylation): 1 µM
lowest effective concentration ([6]; EGFR peptide phosphorylation, A-431): 1 nM
effect on EGFR peptide phosphorylation ([6]; words): similarly effective
Raf-1 phosphorylation in intact HL-60 cells (Raf-1 [7]): similarly induced Raf-1 phosphorylation
effect on kinase activity of Raf-1 toward MEK1 (Raf-1 [8]): similarly enhanced activity toward MEK1
enhancement of kinase activity, of control [9]: 1.5-2.5 of control
enhancement of CAP kinase autophosphorylation / activity [10]: 5-10 fold
